Test systems include SW-620 colon; LOX IMVI melanoma; KM12 colon; A498 renal; SK-MEL-2 melanoma; SK-MEL-28 melanoma; UO-31 renal; OVCAR-4 ovarian; 786-0 renal; OVCAR-8 ovarian; TK-10 renal; M14 melanoma; RXF 393 renal; HCT-116 colon; NCI-H460 lung; NCI-H522 lung; OVCAR-5 ovarian; SR leukemia; DU-145 prostate.
Holding throughout (experiment): NCI anticancer screen, dose series, 48 h

This note sets out measurements from PubChem BioAssay (NCI).

Each structure is given as a SMILES string.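 96-well plates; 48 h exposure; 5 concentrations. Endpoints by linear interpolation between flanking doses. Not reached: highest tested concentration assigned. TGI: concentration producing complete growth inhibition.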 Some results are limits rather than exact numbers.

As for `O=C(O)Cc1cccc2c1Oc1ccccc1S2`, the TGI in the assay on SW-620 colon, in the assay on LOX IMVI melanoma, in the assay on KM12 colon, with A498 renal, in the assay with SK-MEL-2 melanoma and in the assay on SK-MEL-28 melanoma was more than 100 µM throughout. Besides, the TGI in the assay on UO-31 renal, in the assay on OVCAR-4 ovarian, in the assay on 786-0 renal, with OVCAR-8 ovarian, in the assay with TK-10 renal and in the assay on M14 melanoma was more than 100 µM throughout. In addition, the TGI in the assay with RXF 393 renal, in the assay on HCT-116 colon and in the assay on NCI-H460 lung was more than 100 µM each time.
Regarding `COc1cc(-c2cc(=O)c3c(O)c(OC)c(OC)c(OC)c3o2)ccc1O`, the TGI with SW-620 colon was more than 100 µM; in the assay on LOX IMVI melanoma, 68.8 µM; with KM12 colon, more than 100 µM; with A498 renal it was 17.6 µM; with SK-MEL-2 melanoma it was 46.1 µM; in the assay on SK-MEL-28 melanoma, more than 100 µM. In addition, the TGI is more than 100 µM in the assay with UO-31 renal; more than 100 µM in the assay with 786-0 renal; 44.7 µM in the assay on NCI-H522 lung; 48.4 µM with OVCAR-8 ovarian; 78.3 µM in the assay with TK-10 renal; 81.7 µM in the assay with M14 melanoma. Further, the TGI in the assay on OVCAR-5 ovarian was more than 100 µM; in the assay on RXF 393 renal it was 48 µM; in the assay on HCT-116 colon, more than 100 µM; in the assay on NCI-H460 lung, 69.2 µM; in the assay on SR leukemia, more than 100 µM.
On to `CCOC(=O)N(c1ccccc1)c1cc(=O)n2ccccc2n1`, for which the TGI in the assay on SW-620 colon, in the assay on LOX IMVI melanoma, with KM12 colon, in the assay with DU-145 prostate, in the assay with A498 renal and in the assay on SK-MEL-28 melanoma was more than 100 µM throughout. In addition, the TGI with UO-31 renal, with OVCAR-4 ovarian, in the assay on 786-0 renal, with OVCAR-8 ovarian, in the assay with TK-10 renal and in the assay with OVCAR-5 ovarian was more than 100 µM each time. The TGI with RXF 393 renal, with HCT-116 colon, with NCI-H460 lung and in the assay on SR leukemia was more than 100 µM each time.
On to `CCOC(=O)c1cc2c(nc1N)-c1ncccc1CC2`, for which the TGI in the assay on SW-620 colon, in the assay with LOX IMVI melanoma, in the assay with KM12 colon, with A498 renal, in the assay on SK-MEL-2 melanoma and in the assay with SK-MEL-28 melanoma was more than 100 µM each time. The TGI in the assay with UO-31 renal, in the assay with OVCAR-4 ovarian, in the assay with 786-0 renal, in the assay on NCI-H522 lung, in the assay with OVCAR-8 ovarian and with TK-10 renal was more than 100 µM in each case. The TGI with M14 melanoma was more than 100 µM; in the assay on OVCAR-5 ovarian, more than 100 µM; with RXF 393 renal, more than 100 µM; with HCT-116 colon it was more than 100 µM; in the assay with NCI-H460 lung, more than 100 µM; in the assay on SR leukemia, 57 µM.
As for `NCCCCN(CCCN)C(=O)c1ccccc1`, the TGI with SW-620 colon, in the assay on KM12 colon, in the assay with DU-145 prostate, in the assay with A498 renal, in the assay with SK-MEL-2 melanoma and in the assay with SK-MEL-28 melanoma was more than 100 µM throughout. Moreover, the TGI in the assay with UO-31 renal, in the assay with OVCAR-4 ovarian, in the assay with 786-0 renal, with NCI-H522 lung, in the assay on OVCAR-8 ovarian and in the assay on TK-10 renal was more than 100 µM in each case. Further, the TGI with M14 melanoma, with OVCAR-5 ovarian, with RXF 393 renal, in the assay on HCT-116 colon and in the assay on NCI-H460 lung was more than 100 µM each time.
As for `CC(Oc1ccc(OCC2CCCCC2)cc1)C(N)=O` (stereo not drawn), the TGI with SW-620 colon, in the assay with LOX IMVI melanoma, in the assay with KM12 colon, in the assay on SK-MEL-2 melanoma, in the assay with SK-MEL-28 melanoma and with UO-31 renal was more than 100 µM throughout. Moreover, the TGI in the assay with OVCAR-4 ovarian, in the assay with 786-0 renal, in the assay on NCI-H522 lung, with OVCAR-8 ovarian, in the assay with TK-10 renal and in the assay on M14 melanoma was more than 100 µM in each case. The TGI with HCT-116 colon and in the assay on NCI-H460 lung was more than 100 µM each time.
Take `CC(O)C(N=Cc1nc(-c2ccccc2)oc1O)C(=O)O` (stereo not drawn): the TGI in the assay with SW-620 colon, in the assay on LOX IMVI melanoma, with KM12 colon, with A498 renal, in the assay on SK-MEL-2 melanoma and with SK-MEL-28 melanoma was more than 100 µM in each case. For the same molecule, the TGI in the assay with UO-31 renal, with OVCAR-4 ovarian, with 786-0 renal, in the assay on NCI-H522 lung, in the assay with OVCAR-8 ovarian and in the assay with TK-10 renal was more than 100 µM each time. Besides, the TGI in the assay on M14 melanoma, with OVCAR-5 ovarian, in the assay on RXF 393 renal, with HCT-116 colon and with NCI-H460 lung was more than 100 µM throughout.
Regarding `O=C1CCCC/C1=C1\C(=O)Nc2cc(F)ccc21`, the TGI in the assay on SW-620 colon, with LOX IMVI melanoma, in the assay with KM12 colon, in the assay on A498 renal, in the assay with SK-MEL-2 melanoma and in the assay with SK-MEL-28 melanoma was more than 100 µM throughout. In addition, the TGI with UO-31 renal, in the assay with OVCAR-4 ovarian, in the assay with 786-0 renal, in the assay with NCI-H522 lung, in the assay on OVCAR-8 ovarian and in the assay on TK-10 renal was more than 100 µM in each case. The TGI in the assay on M14 melanoma, with OVCAR-5 ovarian, with RXF 393 renal, in the assay on HCT-116 colon and in the assay with NCI-H460 lung was more than 100 µM in each case.
In the case of `Cc1c(-c2nnc(-c3ccc(Cl)cc3)o2)c(=O)n(-c2ccccc2)n1C`, the TGI in the assay on SW-620 colon, with LOX IMVI melanoma, in the assay with KM12 colon, in the assay with A498 renal, in the assay with SK-MEL-2 melanoma and in the assay on SK-MEL-28 melanoma was more than 100 µM throughout. The TGI with UO-31 renal, in the assay with OVCAR-4 ovarian, in the assay on 786-0 renal, in the assay with NCI-H522 lung, in the assay with OVCAR-8 ovarian and in the assay on TK-10 renal was more than 100 µM throughout. For the same molecule, the TGI with M14 melanoma, in the assay with RXF 393 renal, in the assay with HCT-116 colon, with NCI-H460 lung and with SR leukemia was more than 100 µM each time.
For the molecule `CC(=O)C1=C(C)Cn2c(=O)c3ccccc3c(=O)n2C1`, the TGI with SW-620 colon, in the assay on LOX IMVI melanoma, in the assay on KM12 colon, in the assay on A498 renal, in the assay on SK-MEL-2 melanoma and with SK-MEL-28 melanoma was more than 100 µM throughout. The TGI in the assay with UO-31 renal, with OVCAR-4 ovarian, in the assay with 786-0 renal, in the assay with NCI-H522 lung, with OVCAR-8 ovarian and in the assay on TK-10 renal was more than 100 µM each time. The TGI in the assay on M14 melanoma, with OVCAR-5 ovarian, with RXF 393 renal, with HCT-116 colon, with NCI-H460 lung and in the assay on SR leukemia was more than 100 µM each time.
Turning to `CC1(C)OC(C[C@]2(C#N)C[C@H](CCl)OC(C)(C)O2)C[C@@H](C[C@]2(C#N)C[C@H](CCl)OC(C)(C)O2)O1` (stereo partly drawn), the TGI with SW-620 colon, with LOX IMVI melanoma, in the assay with KM12 colon, in the assay with A498 renal, in the assay with SK-MEL-2 melanoma and in the assay with SK-MEL-28 melanoma was more than 100 µM each time. Also, the TGI in the assay with OVCAR-4 ovarian, in the assay with 786-0 renal, in the assay on NCI-H522 lung, in the assay on OVCAR-8 ovarian, with TK-10 renal and with M14 melanoma was more than 100 µM each time. Besides, the TGI with OVCAR-5 ovarian, in the assay on HCT-116 colon, in the assay on NCI-H460 lung and in the assay on SR leukemia was more than 100 µM each time.
As to `CC1(C)CC(=O)C2=C(C1)S/C(=C1/SC3=C(S1)C(=O)CC(C)(C)C3)S2`, the TGI in the assay on SW-620 colon, in the assay with LOX IMVI melanoma, with KM12 colon, in the assay on A498 renal, with SK-MEL-2 melanoma and in the assay with SK-MEL-28 melanoma was more than 251 µM throughout. Further, the TGI in the assay with UO-31 renal, with 786-0 renal, in the assay with NCI-H522 lung, with OVCAR-8 ovarian, in the assay with TK-10 renal and in the assay with M14 melanoma was more than 251 µM in each case. The TGI in the assay on RXF 393 renal, in the assay with HCT-116 colon, in the assay on NCI-H460 lung and in the assay on SR leukemia was more than 251 µM each time.
For `CCCCCC[C@H]1CC(=O)C2CCCC[C@@]23CC[C@H](CCl)N13` (stereo partly drawn) (tested in a mixture with another compound), the TGI with KM12 colon, in the assay with DU-145 prostate, in the assay with A498 renal, in the assay with SK-MEL-2 melanoma, in the assay with SK-MEL-28 melanoma and with UO-31 renal was more than 100 µM throughout. Besides, the TGI was more than 100 µM in the assay with OVCAR-4 ovarian; more than 100 µM in the assay on 786-0 renal; 37.5 µM in the assay with NCI-H522 lung; 64.6 µM with OVCAR-8 ovarian; more than 100 µM in the assay on TK-10 renal; more than 100 µM in the assay on M14 melanoma. The TGI in the assay on OVCAR-5 ovarian, in the assay on HCT-116 colon and in the assay with NCI-H460 lung was more than 100 µM in each case.
